{"source": "patent US9095607B2", "about": "“Gel for topical application of clove essential oil with broad spectrum anti-inflammatory action and method of preparing same” (priority 2013, dated 2015)", "origin": "cited, not measured here"}
{"molecule": "C=C1CC/C=C(\\C)CC[C@@H]2[C@@H]1CC2(C)C", "note": "[Beta-caryophyllene]", "values": [{"measurement": "LPS-induced neutrophil migration", "setting": "neutrophil migration", "value": "inhibit"}, {"measurement": "LPS-induced NF-kB activation", "setting": "NF-kB", "value": "inhibit"}]}
{"molecule": "C/C1=C\\CC/C(C)=C/CC(C)(C)/C=C/C1", "note": "[Alpha-humulene]", "values": [{"measurement": "LPS-induced neutrophil migration", "setting": "neutrophil migration", "value": "inhibit"}, {"measurement": "LPS-induced NF-kB activation", "setting": "NF-kB", "value": "inhibit"}, {"measurement": "in vivo up-regulation of kinin B1 receptors", "setting": "kinin B1 receptors", "value": "ability to prevent"}]}
